# Reference: ChEMBL document CHEMBL1201862, “PubChem BioAssay data set” (2004)
# The source made the active and inactive calls.
# Tests used:
# [1] = target: T1, Low molecular weight phosphotyrosine protein phosphatase (Homo sapiens, UniProt P24666); assay: inhibition of LMPTP-A enzymatic activity – biochemical, OMFP substrate, fluorescence intensity, set 2, dose response (AID 743307); format: functional
# T1 sequence (P24666 whole entry): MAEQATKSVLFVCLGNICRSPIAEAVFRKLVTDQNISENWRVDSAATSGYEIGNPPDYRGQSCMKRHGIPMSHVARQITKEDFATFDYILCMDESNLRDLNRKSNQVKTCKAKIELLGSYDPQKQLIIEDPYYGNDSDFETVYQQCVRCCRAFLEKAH
# [2] = target: T1, Low molecular weight phosphotyrosine protein phosphatase; assay: inhibition of human LMPTP enzyme activity – biochemical, absorbance, pNPP substrate, LMPTP-A isoform, set 2, orthogonal assay, dose response (AID 743308); format: functional
# [3] = viability loss in CEM21 cells – cell-based, CellTiter-Glo luminescence, cherry-picked, cytotoxicity control for viral fusion inhibitor project, dose response (AID 652042); format: functional;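 note: potency for signal decrease meaning cytotoxicity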
# [4] = viability of HCT116 lacking mutant beta-catenin – cell-based, human colon tumor, dose response (AID 1045); format: functional;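 note: HCT116 colon tumor cells with beta catenin knocked out; cells exposed to compound for 60 hours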
# [5] = viability of PTEN-deleted HCT116 cells – cell-based, HCT116 PTEN knockout, dose response (AID 1047); format: functional;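 note: HCT116 colon tumor cells with PTEN knocked out; cells exposed to compound for 60 hours before readout; potency for loss of cell viability measured by luminescence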
# INS1 = assay: INS-1E survival protection against cytokine death – cell-based, luminescence, retest, dose response (AID 449756); format: functional; settings: Rattus norvegicus;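 note: cell death triggered by IL-1 beta plus TNF-alpha plus IFN-gamma mixture; protective hits raise ATP signal compared with cytokine alone wells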
# cells [6] = format: functional, cell-based
# Nonstructural protein 1 = Nonstructural protein 1 (Influenza A virus, UniProt Q194T2); format: functional, Influenza A virus (A/California/07/2009(H1N1))
# Sequence of Nonstructural protein 1 (Q194T2 whole entry): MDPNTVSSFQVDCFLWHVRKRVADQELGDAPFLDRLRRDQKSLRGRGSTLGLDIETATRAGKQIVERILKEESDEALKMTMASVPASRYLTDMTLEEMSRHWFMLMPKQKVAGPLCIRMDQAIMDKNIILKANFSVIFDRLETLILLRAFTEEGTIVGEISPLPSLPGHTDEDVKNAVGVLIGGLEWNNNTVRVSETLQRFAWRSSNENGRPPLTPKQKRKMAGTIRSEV
# cells [7] = format: functional, cell-based; remark: listed apart in the source
# [8] = target: T2, Mannose-6-phosphate isomerase (Homo sapiens, UniProt P34949); assay: MPI inhibition at elevated mannose 6-phosphate – biochemical, fluorescence intensity, high mannose 6-phosphate, primary screen (AID 1220)
# T2 sequence (P34949 whole entry): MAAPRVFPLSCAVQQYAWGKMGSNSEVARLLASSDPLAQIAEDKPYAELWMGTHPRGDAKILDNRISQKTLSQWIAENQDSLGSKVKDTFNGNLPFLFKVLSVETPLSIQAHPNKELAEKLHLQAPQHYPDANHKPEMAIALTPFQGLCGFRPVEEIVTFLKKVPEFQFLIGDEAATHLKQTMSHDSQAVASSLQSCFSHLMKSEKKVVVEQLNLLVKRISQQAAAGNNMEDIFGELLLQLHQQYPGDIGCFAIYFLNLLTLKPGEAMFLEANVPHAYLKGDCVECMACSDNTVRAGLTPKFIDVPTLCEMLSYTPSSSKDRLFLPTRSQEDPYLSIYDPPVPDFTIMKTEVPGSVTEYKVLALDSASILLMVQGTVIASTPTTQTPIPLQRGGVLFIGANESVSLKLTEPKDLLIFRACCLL
# [9] = HIV-1 AD8 envelope cell-cell fusion blockers – cherry-pick, dose response (AID 652062); format: functional, cell-based;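 note: luciferase signal from cell-cell fusion driven by HIV-1 clade B AD8 Env; potency is for inhibitors of fusion seen as a drop in luminescence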
# Protein RecA = target: T3, Protein RecA (Mycobacterium tuberculosis, UniProt P9WHJ3); assay: Fluorescence Cell-Free Homogeneous Dose Retest to Identify Inhibitors of RecA-Intein Splicing Activity. [Related pubchem assays (depositor defined):AID2097, AID2223, AID489010, AID492950]; format: functional
# T3 sequence (P9WHJ3 whole entry): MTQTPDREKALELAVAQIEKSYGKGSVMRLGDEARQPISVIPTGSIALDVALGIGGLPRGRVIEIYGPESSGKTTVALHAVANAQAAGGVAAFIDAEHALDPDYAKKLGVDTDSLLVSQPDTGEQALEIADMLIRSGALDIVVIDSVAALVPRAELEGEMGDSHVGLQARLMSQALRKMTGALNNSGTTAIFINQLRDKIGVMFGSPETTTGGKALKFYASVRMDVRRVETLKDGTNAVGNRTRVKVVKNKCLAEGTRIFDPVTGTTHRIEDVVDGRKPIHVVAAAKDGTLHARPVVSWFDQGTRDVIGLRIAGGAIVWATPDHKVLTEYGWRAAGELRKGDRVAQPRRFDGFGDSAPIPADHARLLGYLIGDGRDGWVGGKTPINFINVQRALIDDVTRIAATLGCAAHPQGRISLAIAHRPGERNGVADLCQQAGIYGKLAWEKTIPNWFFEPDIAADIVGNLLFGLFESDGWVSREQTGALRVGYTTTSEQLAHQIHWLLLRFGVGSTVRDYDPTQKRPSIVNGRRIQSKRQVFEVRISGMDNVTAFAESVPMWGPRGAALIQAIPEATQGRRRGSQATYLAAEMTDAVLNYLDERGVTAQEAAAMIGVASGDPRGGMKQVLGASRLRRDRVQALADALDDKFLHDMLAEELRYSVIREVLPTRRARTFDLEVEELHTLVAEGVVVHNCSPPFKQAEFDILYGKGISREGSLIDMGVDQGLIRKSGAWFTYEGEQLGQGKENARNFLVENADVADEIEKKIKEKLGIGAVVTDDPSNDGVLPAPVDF
# [10] = viability loss in Vero cells – cytotoxicity control for Vif-APOBEC3G degradation inhibitor project, dose response (AID 1117358); format: functional; settings: Vero
# HEK293 [11] = assay: NOD2 signaling inhibitors in MDP-stimulated cells, cell-based, uHTS, luminescence (AID 2001); format: functional; settings: Homo sapiens
# HEK293 [12] = assay: inhibition of NOD1-driven NF-kB reporter – cell-based, luminescence, uHTS, primary screen (AID 1578); format: functional; settings: Homo sapiens
# [13] = Intein inhibitors as potential Tuberculosis drugs, a cytotoxicity screen. [Related pubchem assays (depositor defined):AID2221, AID2223, AID434968, AID435010, AID449749, AID449750, AID489010]; format: functional
# HEK293 [14] = assay: cells; format: functional, cell-based; settings: Homo sapiens
# HEK293 [15] = assay: cells; format: functional, cell-based; settings: Homo sapiens; remark: listed apart in the source
# HEK293 [16] = assay: cells; format: functional, cell-based; settings: Homo sapiens; remark: listed apart in the source
# [17] = target: T4, Replicative DNA helicase DnaB (Mycobacterium tuberculosis, UniProt P9WMR3); assay: DnaB intein splicing inhibitors, dose response, biochemical, cell-free fluorescence (AID 449749); format: functional
# T4 sequence (P9WMR3 whole entry): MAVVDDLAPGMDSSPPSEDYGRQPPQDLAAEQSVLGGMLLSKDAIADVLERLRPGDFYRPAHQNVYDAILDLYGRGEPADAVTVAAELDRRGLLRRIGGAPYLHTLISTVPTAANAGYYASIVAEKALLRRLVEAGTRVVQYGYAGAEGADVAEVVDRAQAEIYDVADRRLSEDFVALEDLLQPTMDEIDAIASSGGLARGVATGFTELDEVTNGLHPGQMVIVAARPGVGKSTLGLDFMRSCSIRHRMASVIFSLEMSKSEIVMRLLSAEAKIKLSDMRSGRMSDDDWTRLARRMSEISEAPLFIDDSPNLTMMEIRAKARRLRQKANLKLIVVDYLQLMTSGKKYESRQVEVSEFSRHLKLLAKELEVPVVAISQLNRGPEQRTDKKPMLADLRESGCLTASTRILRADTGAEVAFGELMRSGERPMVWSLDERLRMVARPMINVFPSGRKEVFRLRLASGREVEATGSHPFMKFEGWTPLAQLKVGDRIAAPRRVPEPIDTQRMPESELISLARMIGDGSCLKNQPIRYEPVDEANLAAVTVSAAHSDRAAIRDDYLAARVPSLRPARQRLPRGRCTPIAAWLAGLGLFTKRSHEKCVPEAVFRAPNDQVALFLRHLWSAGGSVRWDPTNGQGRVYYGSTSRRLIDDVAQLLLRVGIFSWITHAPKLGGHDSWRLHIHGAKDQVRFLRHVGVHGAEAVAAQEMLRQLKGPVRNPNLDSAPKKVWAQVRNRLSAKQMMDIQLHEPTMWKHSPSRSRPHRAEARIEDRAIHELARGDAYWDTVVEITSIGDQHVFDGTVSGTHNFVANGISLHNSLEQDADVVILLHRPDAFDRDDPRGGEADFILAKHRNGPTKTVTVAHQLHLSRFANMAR
# [18] = target: Nucleotide-binding oligomerization domain-containing protein 2 (Homo sapiens, UniProt Q9HC29); assay: inhibition of NOD2-driven NF-kB reporter – cell-based, luminescence, uHTS, HEK293 (AID 1566); format: functional
# Sequence of Nucleotide-binding oligomerization domain-containing protein 2 (Q9HC29 whole entry, the tested form may be a part): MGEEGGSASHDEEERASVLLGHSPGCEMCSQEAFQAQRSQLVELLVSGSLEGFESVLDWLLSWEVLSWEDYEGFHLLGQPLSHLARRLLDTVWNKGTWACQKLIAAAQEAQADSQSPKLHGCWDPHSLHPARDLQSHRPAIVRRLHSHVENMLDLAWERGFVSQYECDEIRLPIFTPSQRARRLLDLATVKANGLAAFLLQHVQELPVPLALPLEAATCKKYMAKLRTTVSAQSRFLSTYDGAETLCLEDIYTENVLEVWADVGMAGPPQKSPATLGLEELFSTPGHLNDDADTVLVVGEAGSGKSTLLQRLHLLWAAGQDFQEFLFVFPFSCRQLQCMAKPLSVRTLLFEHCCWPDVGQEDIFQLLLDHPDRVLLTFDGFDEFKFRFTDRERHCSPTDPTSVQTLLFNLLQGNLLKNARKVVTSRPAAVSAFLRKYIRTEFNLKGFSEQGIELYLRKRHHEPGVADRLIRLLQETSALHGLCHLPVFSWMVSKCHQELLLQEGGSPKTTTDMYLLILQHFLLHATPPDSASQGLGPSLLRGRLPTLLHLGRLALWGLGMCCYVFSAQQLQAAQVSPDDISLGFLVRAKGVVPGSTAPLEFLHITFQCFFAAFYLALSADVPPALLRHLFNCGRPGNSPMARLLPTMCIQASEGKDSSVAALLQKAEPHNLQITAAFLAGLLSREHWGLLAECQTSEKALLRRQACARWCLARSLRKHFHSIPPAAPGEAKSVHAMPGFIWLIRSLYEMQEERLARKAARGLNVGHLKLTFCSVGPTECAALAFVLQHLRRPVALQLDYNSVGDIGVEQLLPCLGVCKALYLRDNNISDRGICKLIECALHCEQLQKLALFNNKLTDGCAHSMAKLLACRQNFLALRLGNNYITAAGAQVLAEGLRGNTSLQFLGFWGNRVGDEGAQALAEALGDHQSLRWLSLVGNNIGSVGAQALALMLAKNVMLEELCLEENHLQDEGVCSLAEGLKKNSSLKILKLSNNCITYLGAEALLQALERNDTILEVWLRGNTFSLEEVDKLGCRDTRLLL
# NADPH oxidase 1 = NADPH oxidase 1 (Homo sapiens, UniProt Q9Y5S8); assay: Late-stage luminescence-based cell-based dose response assay to identify inhibitors of NADPH oxidase 1 (NOX1): Synthesized analogs 2.; format: functional
# Sequence of NADPH oxidase 1 (Q9Y5S8 whole entry): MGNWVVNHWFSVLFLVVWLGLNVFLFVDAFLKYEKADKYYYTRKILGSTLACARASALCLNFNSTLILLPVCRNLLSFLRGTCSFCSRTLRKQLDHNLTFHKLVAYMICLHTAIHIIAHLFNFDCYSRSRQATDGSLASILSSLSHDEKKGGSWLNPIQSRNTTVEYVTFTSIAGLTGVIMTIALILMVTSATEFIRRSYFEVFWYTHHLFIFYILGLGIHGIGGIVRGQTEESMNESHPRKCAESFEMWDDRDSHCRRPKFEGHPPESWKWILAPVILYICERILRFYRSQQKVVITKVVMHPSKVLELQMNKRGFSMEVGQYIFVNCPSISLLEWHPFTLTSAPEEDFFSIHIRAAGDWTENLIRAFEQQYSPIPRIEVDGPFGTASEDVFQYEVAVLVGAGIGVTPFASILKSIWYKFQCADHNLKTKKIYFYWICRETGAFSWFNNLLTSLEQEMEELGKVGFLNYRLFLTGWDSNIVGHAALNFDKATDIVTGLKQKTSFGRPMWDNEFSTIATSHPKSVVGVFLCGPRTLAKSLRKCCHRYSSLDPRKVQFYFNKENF
# [19] = target: Solute carrier family 12 member 2/member 5 (Homo sapiens, UniProt P55011+Q9H2X9); assay: KCC2 and NKCC1 inhibition by rubidium flux, cell-based, NKCC1 counter-screen (AID 1734); format: functional, HEK293
# Bcl-2-related protein A1 [20] = target: T5, Bcl-2-related protein A1 (Mus musculus, UniProt Q07440); assay: small-molecule antagonists of Bfl-1/BH3 interaction – biochemical, TR-FRET, mouse Bfl-1, confirmation (AID 621);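 note: TR-FRET binding of GST-Bfl-1 to FITC-labelled Bid peptide via terbium antibody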
# T5 sequence (Q07440 whole entry): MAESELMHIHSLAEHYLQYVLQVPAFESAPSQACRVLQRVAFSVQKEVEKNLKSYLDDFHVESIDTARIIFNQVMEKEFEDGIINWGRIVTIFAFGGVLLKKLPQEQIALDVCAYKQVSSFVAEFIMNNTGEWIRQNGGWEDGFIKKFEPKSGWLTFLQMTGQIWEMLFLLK
# [21] = target: T6, Dual specificity protein phosphatase 6 (Rattus norvegicus, UniProt Q64346); assay: inhibition of rat DUSP6 enzyme activity – biochemical, in vitro, primary screen (AID 425)
# T6 sequence (Q64346 whole entry): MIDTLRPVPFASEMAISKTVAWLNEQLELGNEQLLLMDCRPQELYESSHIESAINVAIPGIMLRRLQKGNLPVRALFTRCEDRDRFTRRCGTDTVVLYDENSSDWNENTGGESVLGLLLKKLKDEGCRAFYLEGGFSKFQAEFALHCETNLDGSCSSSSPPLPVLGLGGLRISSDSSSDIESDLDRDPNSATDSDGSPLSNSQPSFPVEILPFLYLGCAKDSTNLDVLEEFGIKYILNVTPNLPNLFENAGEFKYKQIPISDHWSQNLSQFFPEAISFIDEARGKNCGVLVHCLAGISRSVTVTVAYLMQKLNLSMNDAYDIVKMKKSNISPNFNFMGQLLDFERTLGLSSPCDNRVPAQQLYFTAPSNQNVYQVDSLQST
# Bcl-2-related protein A1 [22] = target: T5, Bcl-2-related protein A1; assay: displacement of Bid BH3 peptide from Bfl-1 – biochemical, fluorescence polarization, FITC-Bid, mouse, primary screen (AID 432)
# [23] = target: T7, High affinity choline transporter 1 (Homo sapiens, UniProt Q9GZV3); assay: human choline transporter blockers, potency – cell-based, 5-point CRC, membrane potential dye, dose response (AID 504840); format: functional
# T7 sequence (Q9GZV3 whole entry): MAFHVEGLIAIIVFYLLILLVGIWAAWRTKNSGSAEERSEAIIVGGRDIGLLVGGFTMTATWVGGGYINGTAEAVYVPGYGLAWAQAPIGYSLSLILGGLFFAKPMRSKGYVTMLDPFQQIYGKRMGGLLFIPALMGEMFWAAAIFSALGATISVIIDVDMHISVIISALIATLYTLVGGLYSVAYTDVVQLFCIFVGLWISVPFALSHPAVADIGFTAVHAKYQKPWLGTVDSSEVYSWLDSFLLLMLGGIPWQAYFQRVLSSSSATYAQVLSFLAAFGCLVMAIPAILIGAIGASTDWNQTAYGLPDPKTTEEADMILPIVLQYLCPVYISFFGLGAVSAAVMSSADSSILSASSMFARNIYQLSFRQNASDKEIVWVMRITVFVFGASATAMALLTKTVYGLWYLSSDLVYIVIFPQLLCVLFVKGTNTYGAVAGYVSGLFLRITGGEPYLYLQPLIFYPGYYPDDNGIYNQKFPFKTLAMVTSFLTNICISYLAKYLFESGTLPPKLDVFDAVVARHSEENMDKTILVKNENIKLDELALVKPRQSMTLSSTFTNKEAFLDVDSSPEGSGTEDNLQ
# Danio rerio = assay: In Vivo Angiogenesis Dose-Response Confirmation. [Related pubchem assays: 732 (Assay preceding this confirmatory assay.)]; format: functional, organism-based
compound,measurement,setting,value
CC1CCN(c2nc(-c3ccccc3)nc3ccccc23)CC1,IC50,[1],> 80 µM (inactive)
same,IC50,[2],> 80 µM (inactive)
COc1ccccc1N1CCN(Cc2ccc(O)c3ncccc23)CC1,AC50,[3],3.39 µM (active)
same,EC50,[4],1.95 µM (active)
same,EC50,[5],2.25 µM (active)
same,AC50,INS1,2.27 µM (active)
same,EC50,cells [6],> 350 µM (not active)
same,IC50,Nonstructural protein 1,5.46 µM (active)
same,EC50,cells [7],12.1 µM (active)
same,IC50,[8],19.2 µM (active)
same,AC50,[9],29.6 µM (active)
CN(C1=C(NC(=O)c2ccc(Cl)cc2)C(=O)c2ccccc2C1=O)c1ccccc1,EC50,Protein RecA,1.66 µM (active)
same,CC50,[10],> 40 µM (active)
same,EC50,[4],8.39 µM (active)
same,IC50,HEK293 [11],8.31 µM (active)
same,EC50,[5],7.51 µM (active)
same,AC50,INS1,3.01 µM (active)
same,EC50,HEK293 [12],> 20 µM (inactive)
same,IC50,Nonstructural protein 1,7.27 µM (active)
same,CC50,[13],20.1 µM (active)
same,IC50,HEK293 [14],> 20 µM (inactive)
same,IC50,HEK293 [15],5.15 µM (active)
same,IC50,HEK293 [16],9.67 µM (active)
same,AC50,[17],3.94 µM (active)
same,EC50,[18],11.4 µM (active)
O=C(Nc1c(F)cccc1F)N1c2ccccc2Sc2ccccc21,IC50,NADPH oxidase 1,0.636 µM (active)
O=S(=O)(NCc1ccccc1)c1ccc(Cl)c(S(=O)(=O)NCc2ccccc2)c1,IC50,[19],9.1 µM (active)
N#Cc1c(N)sc(=S)c2c1CCN(Cc1ccccc1)C2,IC50,Bcl-2-related protein A1 [20],> 100 µM (not active)
same,IC50,[21],10.8 µM (active)
same,IC50,Bcl-2-related protein A1 [22],> 100 µM (not active)
C[N+](C)(C)CCOC(=O)CBr [E1001],IC50,[23],14.1 µM (active)
same,IC50,Danio rerio,31.6 µM (not active)
